Measurements published in patent US20200291444A1, “Macrocyclisation Tags” (Oxford University Innovation LTD, priority 2017, published 2020).
No end group written: not given here.

Tests used:
PCY1 [1] = experiment: PCY1 macrocyclisation of hybrid precursor peptides containing non-amino acids (Maldi); format: biochemical, Saponaria vaccaria; conditions: 16 h incubation with PCY1, Maldi spectrum
Protocol: All kinetic measurements (activity tests, progress curves and initial-rate experiments) were performed as discontinuous assays analyzing samples via LC/MS or MALDI (10-mer activity test). Reactions were performed in 20 mM Tris pH 8.5, 100 mM NaCl, 5 mM DTT (for progress curves 0.2 mg mL-1 BSA was included).17 Reactions were performed at 30° C. and at various time points 50 μL samples were quenched with 20 μL of 6% (v/v) TFA. Samples (50 μL) were loaded onto a ZORBAX SBC18, 5 μm, 9.4 mm×50 mm (Agilent) column connected to an Agilent LC-MS instrument (G6130B Single Quad, Agilent Technologies). Reactants were separated from products using a gradient from A (H2O with 0.1% formic acid) to 80% B (acetonitrile), at a rate of 1.5 mL/min for 8.75 min. For data analysis, ion count peaks and UV absorbance peaks were integrated using Agilent ChemStation software. For data analysis involving quantitative mass spec integration, calibration curves with macrocyclic peptide product were performed in triplicate in order to linearly correlate ion counts to cyclic product concentration. Data fitting and plotting was performed with Prism 6. […]

PCY1 [2] = conditions: PCY1 extracted from S. vaccaria seeds; cited from earlier work
PCY1:S562A = experiment: ITC equilibrium binding to PCY1:S562A; design: species or system Saponaria vaccaria; conditions: ITC, 25° C.
Protocol: (§1) All PCY1 samples were buffer-exchanged or solubilized into buffer F and further diluted in the same batch of buffer F, in order to minimize buffer mismatches. ITC binding experiments were performed using a cell solution containing PCY1:S562A and a titrant solution with each peptide used. […] The measurements were performed at a stir speed of 750 rpm at 25° C. using a reference power of 10 μcal/s, except for A1-NH2 (5 μcal/s). A buffer titration control in which peptide was titrated into buffer was performed for each experiment. Data processing, fitting to a non-linear one-site binding model, and data plotting was performed using MicroCal PEAQ ITC analysis software (Malvern). […] The measurement was performed in buffer at 30° C., at 750 rpm using a reference power of 5 μcal/s.

PCY1 [3] = experiment: LC/MS time course of macrocyclisation by PCY1; format: biochemical, Saponaria vaccaria; conditions: 200 μM substrate, 3.6 μM PCY1
Protocol: (§2) All kinetic measurements (activity tests, progress curves and initial-rate experiments) were performed as discontinuous assays analyzing samples via LC/MS or MALDI (10-mer activity test). Reactions were performed in 20 mM Tris pH 8.5, 100 mM NaCl, 5 mM DTT (for progress curves 0.2 mg mL-1 BSA was included).17 Reactions were performed at 30° C. and at various time points 50 μL samples were quenched with 20 μL of 6% (v/v) TFA. Samples (50 μL) were loaded onto a ZORBAX SBC18, 5 μm, 9.4 mm×50 mm (Agilent) column connected to an Agilent LC-MS instrument (G6130B Single Quad, Agilent Technologies). Reactants were separated from products using a gradient from A (H2O with 0.1% formic acid) to 80% B (acetonitrile), at a rate of 1.5 mL/min for 8.75 min. For data analysis, ion count peaks and UV absorbance peaks were integrated using Agilent ChemStation software. For data analysis involving quantitative mass spec integration, calibration curves with macrocyclic peptide product were performed in triplicate in order to linearly correlate ion counts to cyclic product concentration. Data fitting and plotting was performed with Prism 6.
PCY1 extracted from S. vaccaria seeds has been previously described to have a turnover number of ˜1 h^−1 for PresegA1.^17 The enzyme produced heterologously in E. coli was evaluated by LC/MS-based time course experiments macrocyclizing 200 μM of PresegA1, PresegB1 or PresegF1 with 3.6 μM PCY1. […] We chose to investigate the slowest and fastest substrate by steady-state kinetics using an LC/MS assay and UV280 nm quantification. […] Under the ITC conditions, the measured kcat (0.14±0.01 s^−1) was a factor of three lower than the LC/MS derived values. […] Therefore, we resorted to an LC/MS assay followed by quantification using mass ion counts, relying on a calibration curve employing the macrocyclic peptide product as a standard (FIG. 2b).

GmPOPB_S577A [4] = target: T1, GmPOPB_S577A (Galerina marginata, UniProt H2E7Q8, S577A); experiment: ITC binding to inactive mutant GmPOPB_S577A
T1 construct: His-tag (TEV-cleavable) (cleaved yes); made in house; host or cells: E. coli BL21(DE3)
T1 sequence (H2E7Q8 1-730 S577A): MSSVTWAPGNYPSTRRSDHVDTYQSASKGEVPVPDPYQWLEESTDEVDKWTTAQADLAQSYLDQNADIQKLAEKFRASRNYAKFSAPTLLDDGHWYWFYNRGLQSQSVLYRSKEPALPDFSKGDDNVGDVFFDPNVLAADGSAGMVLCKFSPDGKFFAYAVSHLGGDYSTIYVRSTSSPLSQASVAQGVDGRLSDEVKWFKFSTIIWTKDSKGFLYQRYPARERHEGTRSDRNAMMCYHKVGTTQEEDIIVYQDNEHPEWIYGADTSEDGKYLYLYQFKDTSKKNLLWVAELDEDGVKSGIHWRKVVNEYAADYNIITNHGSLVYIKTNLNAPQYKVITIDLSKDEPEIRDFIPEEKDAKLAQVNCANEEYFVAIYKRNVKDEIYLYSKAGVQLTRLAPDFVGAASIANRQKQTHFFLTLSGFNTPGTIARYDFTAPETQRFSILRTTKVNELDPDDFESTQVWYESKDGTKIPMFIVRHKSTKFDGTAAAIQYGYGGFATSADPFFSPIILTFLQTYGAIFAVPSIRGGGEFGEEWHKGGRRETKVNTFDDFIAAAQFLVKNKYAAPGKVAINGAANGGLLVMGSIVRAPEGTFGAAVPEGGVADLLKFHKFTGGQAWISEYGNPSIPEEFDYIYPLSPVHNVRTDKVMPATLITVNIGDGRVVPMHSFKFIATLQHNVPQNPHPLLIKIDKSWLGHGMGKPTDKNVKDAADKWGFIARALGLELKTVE

GmPOPB_S577A [5] = target: T1, GmPOPB_S577A; conditions: previously shown; cited from earlier work
25mer substrate = test system: T2, 25mer substrate
T2 sequence: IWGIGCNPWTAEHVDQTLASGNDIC

[6] = test system: T3, 13mer truncated substrate
T3 sequence: IWGIGCNPWTAEH

[7] = test system: T4, 14mer truncated substrate
T4 sequence: IWGIGCNPWTAEHV

PCY1 [8] = experiment: LC/MS steady-state kinetics of macrocyclisation by PCY1; format: biochemical, Saponaria vaccaria
Protocol: as §2
PCY1 extracted from S. vaccaria seeds has been previously described to have a turnover number of ˜1 h^−1 for PresegA1.^17 The enzyme produced heterologously in E. coli was evaluated by LC/MS-based time course experiments macrocyclizing 200 μM of PresegA1, PresegB1 or PresegF1 with 3.6 μM PCY1. These substrates were chosen as they produce 6, 5 and 9 residue macrocycles, respectively, show variability in the length of the C-terminal tail sequence, and have a different C-terminal core residue (proline in PresegF1, alanine in the other two) (FIG. 1b). PresegB1 was completely macrocyclized in ˜30 min, PresegA1 in ˜50 min and PresegF1 in >3 h (FIG. 2a). We chose to investigate the slowest and fastest substrate by steady-state kinetics using an LC/MS assay and UV280 nm quantification. […] Under the ITC conditions, the measured kcat (0.14±0.01 s^−1) was a factor of three lower than the LC/MS derived values. […] Therefore, we resorted to an LC/MS assay followed by quantification using mass ion counts, relying on a calibration curve employing the macrocyclic peptide product as a standard (FIG. 2b).

PCY1 [9] = experiment: Single injection kinetic ITC with PCY1; format: biochemical, Saponaria vaccaria; conditions: 30° C.
Protocol: as §1, with “used. All peptides were used at 200 μM except for presegetalin A1-NH2 (700 μM).” for “used.”

PresegB1 = experiment: Activity test of PCY1 variants with PresegB1 as substrate; format: biochemical, Saponaria vaccaria
[10] = target: T5, GmPOPB_S577A (Galerina marginata), H2E7Q8; experiment: ITC, peptide titrated into GmPOPB_S577A, 20 C
T5 chain: T1 sequence (H2E7Q8 1-730 S577A)

**Q.** With VGAG-8Aoc-FPIQT-NH2 as the molecule, how does the “conversion overnight (in words)” value (PCY1 [1]) read?
**A.** Its value is “almost entirely converted”.

**Q.** What does the source list for “PresegA1: native linear PCY1 substrate presegetalin A1; produces a 6 residue macrocycle (GVPVWAFQAKDVENASAPV; PresegA1)”?
**A.** turnover number (PCY1 [2]): ~1 h⁻¹; Kd (PCY1:S562A): ~200 nM; time until completely macrocyclized (PCY1 [3]): ~50 min

**Q.** With “WTAEHVDQTLASGNDIC [17mer-recogSeq, reference compound]” as the molecule, how does the Kd (GmPOPB_S577A [4]) read?
**A.** The Kd was 430 ± 10 nM.

**Q.** And the “difference in ΔG between the 17mer recognition sequence and the 25mer peptide” value (GmPOPB_S577A [5])?
**A.** The value was 1.34 kcal/mol.

**Q.** With “GmPOPB (Galerina marginata POPB), wild type” as the molecule, how does the “Km, Michaelis-Menten kinetics of macrocyclisation” value (shortened to “Km, Michaelis-Menten kinetics”) (25mer substrate) read?
**A.** Its value is “the 25mer substrate (50 µM)”.

**Q.** What about the “Km, Michaelis-Menten kinetics” value [6] of the same molecule?
**A.** Its value is “the 13mer substrate has a Km (25 µM)”.

**Q.** And the “Km, Michaelis-Menten kinetics” value [7]?
**A.** The value was “the 14mer possesses higher Km (380 µM)”.

**Q.** What does the source list for “PresegB1: native linear PCY1 substrate presegetalin B1; produces a 5 residue macrocycle (GVAWAFQAKDVENASAPV)”?
**A.** kcat (table head prints kout) (PCY1 [8]; LC/MS (UV280 nm), 30° C.): 0.37 ± 0.02 s⁻¹; Km (PCY1 [8]; LC/MS (UV280 nm), 30° C., read-out: Km (table head prints Kin)): 450 ± 170 nM; processing by PCY1 (in words) (PCY1 [8]; steady state kinetics, FIG. 7): rapidly processed; kcat (table head prints kout) (PCY1 [9]): 0.14 ± 0.01 s⁻¹; Km (PCY1 [9]; read-out: Km (table head prints Kin)): 250 ± 10 nM; Kd (PCY1:S562A): ~200 nM; time until completely macrocyclized (PCY1 [3]): ~30 min

**Q.** With FSA-8Aoc-SKPIQT-NH2 as the molecule, how does the conversion rate overnight (PCY1 [1]) read?
**A.** The conversion rate overnight was “around 50%”.

B1: S562A: PCY1 variant (protein)
chain: MATSGFSKPLHYPPVRRDETVVDDYFGVKVADPYRWLEDPNSEETKEFVDNQEKLANSVLEECELIDKFKQKIIDFVNFPRCGVPFRRANKYFHFYNSGLQAQNVFQMQDDLDGKPEVLYDPNLREGGRSGLSLYSVSEDAKYFAFGIHSGLTEWVTIKILKTEDRSYLPDTLEWVKFSPAIWTHDNKGFFYCPYPPLKEGEDHMTRSAVNQEARYHFLGTDQSEDILLWRDLENPAHHLKCQITDDGKYFLLYILDGCDDANKVYCLDLTKLPNGLESFRGREDSAPFMKLIDSFDASYTAIANDGSVFTFQTNKDAPRKKLVRVDLNNPSVWTDLVPESKKDLLESAHAVNENQLILRYLSDVKHVLEIRDLESGALQHRLPIDIGSVDGITARRRDSVVFFKFTSILTPGIVYQCDLKNDPTQLKIFRESVVPDFDRSEFEVKQVFVPSKDGTKIPIFIAARKGISLDGSHPCEMHGYGGFGINMMPTFSASRIVFLKHLGGVFCLANIRGGGEYGEEWHKAGFRDKKQNVFDDFISAAEYLISSGYTKARRVAIEGGANGGLLVAACINQRPDLFGCAEANCGVMDMLRFHKFTLGYLWTGDYGCSDKEEEFKWLIKYSPIHNVRRPWEQPGNEETQYPATMILTADHDDRVVPLHSFKLLATMQHVLCTSLEDSPQKNPIIARIQRKAAHYGRATMTQIAEVADRYGFMAKALEAPWID
**Q.** With B1 as the molecule, how does the “relative activity of PCY1 variant (in words)” value (PresegB1) read?
**A.** The value was “inactive”.

B2: 35mer substrate (GmAMA1) (peptide)
peptide: MFDTNATRLPIWGIGCNPWTAEHVDQTLASGNDIC
modifications: not checked
**Q.** Which Kd [10] does the source give for B2 here?
**A.** Its Kd is 120 nM.
